{"source": "paper PMC10993450", "about": "“New benzimidazole derivative compounds with in vitro fasciolicidal properties” (Parasites & Vectors, 2024)", "key": {"[1]": {"tested_on": "Fasciola hepatica eggs (ABZ-susceptible isolate)", "test": "Egg hatch test (EHT), ABZ-susceptible isolates", "format": "cell-based", "conditions": "mean ± SEM; for % Ovicidal activity: ABZ-susceptible isolate; for killing at 5 µM: Fasciola hepatica, read-out: % Ovicidal activity susceptible isolate", "outline": "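F. hepatica eggs from naturally infected cattle, ABZ-susceptible isolate, exposed 12 h at 25 °C in dark to compound (screen at 50 µM, actives retested at 10 µM; ≤1% DMSO). After washing and 14 days in dark at 25 °C, hatching triggered by 2 h light; ovicidal activity calculated relative to DMSO control.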"}, "[2]": {"tested_on": "Fasciola hepatica eggs (ABZ-resistant isolate)", "test": "Egg hatch test (EHT), ABZ-resistant isolate", "format": "cell-based", "conditions": "5 µM, mean ± SEM", "outline": "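Eggs came from gallbladders of untreated sheep infected with an ABZ-resistant isolate. BZDs with >80% activity at 10 µM were tested on 100–120 eggs, exposed 12 h at 25 °C in the dark (≤1% DMSO), washed, and held 14 days. Hatching was counted after 2 h light, and ovicidal activity was calculated against the DMSO control.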"}, "[3]": {"tested_on": "Fasciola hepatica adults (ABZ-resistant isolate)", "test": "Adult viability test (AVT), motility inhibition", "format": "cell-based", "conditions": "10 µM, ABZ-resistant isolate; for inhibition at 10 µM: Fasciola hepatica, relative to motility score at 24 h", "method": "The adult viability test was based on a previous study carried out by Kirchhofer et al. with minor modifications. In brief, adult F. hepatica flukes were recovered from bile ducts of infected sheep with the resistant isolate. Flukes were quickly washed with 0.9% (w/v) NaCl and placed in six-well plates (Costar, Spain) with RPMI 1640 culture medium (Sigma-Aldrich®, Spain) supplemented with antibiotics (50 μg/mL streptomycin and 50 IU/mL penicillin; Sigma-Aldrich®, Spain) and 80 μg/mL of a hemin solution at 37 °C.\nTo monitor the anthelmintic effect of BZDs and the commercial drug ABZ, two flukes per well were incubated up to 72 h at a final concentration of 10 µM. DMSO at 0.5% was used as negative control. The individual movement of each fluke was examined using an inverted microscope at 24, 48, and 72 h. The activity of the compounds was estimated as motility inhibition, using a scale of fluke viability ranging from 3 (normal movements) to 0 (death, no movement observed for 2 min). All tests were repeated at least twice at different days.\nAdditionally, the percentage of motility inhibition for each compound was calculated from […] to 48 and 72 h after treatment using the following formula: 100 × (mean of the motility score of BZD at 24 h − mean of the motility score of BZD at 48 or 72 h)/(mean of the motility score of BZD at 24 h).\nFor the AVT, statistical analysis was performed using GraphPad Prism version 8.0.2. The normality of the motility inhibition scores was assessed using the Shapiro–Wilk test. Then, differences among scores at the three time points (24, 48, and 72 h) were evaluated using the Friedman test. In cases where significant differences were observed, post hoc analysis was conducted using the Nemenyi test for multiple comparisons. Comparisons with a P value < 0.05 were considered statistically significant."}, "[4]": {"test": "Cytotoxicity assay, alamarBlue", "format": "cell-based, human", "conditions": "human, HepG2 cells; 72 h exposure, alamarBlue; read-out: CC50 Hep-G2", "method": "The effect of the BZDs on cell viability was assessed on a human hepatocarcinoma HepG2 (ATCC® HB-8065™, USA) cell line. Only compounds screened at a concentration of 10 µM were evaluated. The detailed protocol is described in a previous study carried out by our research group. Briefly, 10,000 cells were seeded on 96-well plates and incubated with different concentrations of the compounds ranging from 1 to 100 µM at 37 °C and 5% CO2. After 72 h of exposure, viability of the cells was assessed using the alamarBlue (Fisher Scientific®, Spain) staining method according to the manufacturer’s recommendations.\nThe data are represented as mean ± standard error of media (SEM)."}, "[5]": {"tested_on": "Teladorsagia circumcincta eggs", "conditions": "type II BZDs; read-out: IC50 against T. circumcincta eggs; cited from earlier work"}, "[6]": {"conditions": "read-out: % Adult motility inhibition 48 h"}, "[7]": {"conditions": "read-out: % Adult motility inhibition 72 h"}}, "note": "“And” between values parts separate entries of the source, which are not always exact repeats. Equal entries are not always repeated. “Also recorded” adds a separate entry of the source. Where two headings read alike, the source gives them in different places.", "data": [{"smiles": "Cc1ccc2[nH]c(NC(=O)c3ccccc3)nc2c1", "note": "[BZD46]", "values": [{"measurement": "% Ovicidal activity", "setting": "[1]; 10 µM", "result": "83.90 ± 02.87", "unit": "%"}, {"measurement": "% Ovicidal activity", "setting": "[1]; 50 µM", "result": "98.59 ± 0.94", "unit": "%"}, {"measurement": "% Ovicidal activity", "setting": "[1]; 50 µM, listed as BZD-46", "result": "higher than 80%"}, {"measurement": "killing at 5 µM", "setting": "[1]", "result": "71.2 ± 9.91", "unit": "%"}, {"measurement": "% Ovicidal activity resistant isolate", "setting": "[2]", "result": "11.06 ± 05.30", "unit": "%"}, {"measurement": "% Ovicidal activity resistant isolate", "setting": "[2]; listed as BZD-46", "result": "below 13%"}, {"measurement": "Motility inhibition of adults after 72 h of incubation (in words; significance vs 24 h)", "setting": "[3]", "result": "nor those with ABZSO or BZD46, exhibited any significant motility inhibition"}, {"measurement": "inhibition at 10 µM", "setting": "[3]; [6]", "result": 28.6, "unit": "%"}, {"measurement": "inhibition at 10 µM", "setting": "[3]; [7]", "result": 28.6, "unit": "%"}, {"measurement": "CC50 at 72 h", "setting": "[4]", "result": "> 100", "unit": "µM"}, {"measurement": "IC50", "setting": "[5]", "result": "~1", "unit": "µM"}]}, {"smiles": "O=C(Nc1nc2cc(Cl)ccc2[nH]1)c1ccccc1", "note": "[BZD59]", "values": [{"measurement": "% Ovicidal activity", "setting": "[1]; 10 µM", "result": "91.16 ± 02.58", "unit": "%"}, {"measurement": "% Ovicidal activity", "setting": "[1]; 10 µM, listed as BZD-59", "result": "≥ 80", "unit": "%"}, {"measurement": "% Ovicidal activity", "setting": "[1]; 50 µM", "result": "100.00 ± 0.00", "unit": "%"}, {"measurement": "% Ovicidal activity", "setting": "[1]; 50 µM, listed as BZD-59", "result": "higher than 80%"}, {"measurement": "killing at 5 µM", "setting": "[1]", "result": "73.5 ± 8.88", "unit": "%"}, {"measurement": "% Ovicidal activity resistant isolate", "setting": "[2]", "result": "06.28 ± 05.20", "unit": "%"}, {"measurement": "% Ovicidal activity resistant isolate", "setting": "[2]; listed as BZD-59", "result": "below 13%"}, {"measurement": "Motility inhibition of adults after 72 h of incubation (in words; significance vs 24 h)", "setting": "[3]", "result": "high motility inhibition; also recorded: significant reduction; also recorded: most potent compound; also recorded: most significant reduction in worm motility"}, {"measurement": "inhibition at 10 µM", "setting": "[3]; [6]", "result": 46.7, "unit": "%"}, {"measurement": "inhibition at 10 µM", "setting": "[3]; [7]", "result": 60, "unit": "%"}, {"measurement": "CC50 at 72 h", "setting": "[4]", "result": "> 100", "unit": "µM"}, {"measurement": "IC50", "setting": "[5]", "result": "~1", "unit": "µM"}]}, {"smiles": "Cc1ccc2[nH]c(NCc3cccs3)nc2c1", "note": "[BZD31]", "values": [{"measurement": "% Ovicidal activity", "setting": "[1]; 10 µM", "result": "99.58 ± 00.26", "unit": "%"}, {"measurement": "% Ovicidal activity", "setting": "[1]; 10 µM, listed as BDZ-31", "result": 99.5, "unit": "%"}, {"measurement": "% Ovicidal activity", "setting": "[1]; 10 µM, listed as BZD-31", "result": "≥ 80", "unit": "%"}, {"measurement": "% Ovicidal activity", "setting": "[1]; 50 µM", "result": "100.00 ± 0.00", "unit": "%"}, {"measurement": "% Ovicidal activity", "setting": "[1]; 50 µM, listed as BZD-31", "result": "higher than 80%"}, {"measurement": "killing at 5 µM", "setting": "[1]", "result": 74, "unit": "%"}, {"measurement": "% Ovicidal activity resistant isolate", "setting": "[2]", "result": "53% and 53.24 ± 20.94%"}, {"measurement": "Motility inhibition of adults after 72 h of incubation (in words; significance vs 24 h)", "setting": "[3]", "result": "significant reduction"}, {"measurement": "inhibition at 10 µM", "setting": "[3]; [6]", "result": 35.7, "unit": "%"}, {"measurement": "inhibition at 10 µM", "setting": "[3]; [7]", "result": 38.1, "unit": "%"}, {"measurement": "CC50 at 72 h", "setting": "[4]", "result": "> 50", "unit": "µM"}]}, {"smiles": "COc1ccc2[nH]c(NC(=O)c3ccccc3)nc2c1", "note": "[BZD56]", "values": [{"measurement": "% Ovicidal activity", "setting": "[1]; 10 µM", "result": "93.93 ± 01.90", "unit": "%"}, {"measurement": "% Ovicidal activity", "setting": "[1]; 10 µM, listed as BZD-56", "result": "≥ 80", "unit": "%"}, {"measurement": "% Ovicidal activity", "setting": "[1]; 50 µM", "result": "99.58 ± 0.22", "unit": "%"}, {"measurement": "% Ovicidal activity", "setting": "[1]; 50 µM, listed as BZD-56", "result": "higher than 80%"}, {"measurement": "killing at 5 µM", "setting": "[1]", "result": "< 90", "unit": "%"}, {"measurement": "% Ovicidal activity resistant isolate", "setting": "[2]", "result": "12.39 ± 03.71", "unit": "%"}, {"measurement": "% Ovicidal activity resistant isolate", "setting": "[2]; listed as BZD-56", "result": "below 13%"}, {"measurement": "Motility inhibition of adults after 72 h of incubation (in words; significance vs 24 h)", "setting": "[3]", "result": "significant reduction"}, {"measurement": "inhibition at 10 µM", "setting": "[3]; [6]", "result": 53, "unit": "%"}, {"measurement": "inhibition at 10 µM", "setting": "[3]; [7]", "result": 51.5, "unit": "%"}, {"measurement": "CC50 at 72 h", "setting": "[4]", "result": "> 100", "unit": "µM"}, {"measurement": "IC50", "setting": "[5]", "result": "~1", "unit": "µM"}]}]}
